≈ marks a conversion by molar mass, not a printed value.
How the values were obtained:
[1] = target: T1, glucocerebrosidase (Gcase) (Homo sapiens, UniProt P04062); assay: Glucocerebrosidase (Gcase) activation assay, 4-methylumbelliferyl-beta-D-glucopyranoside substrate, with saposin C; type: biochemical; details: for activation at 0.1 µM: 0.1 μM test compound, read-out: Percent Gcase Activation 0.1 μM Test Compound; for activation at 1 µM: 1 μM test compound, read-out: Percent Gcase Activation 1 μM Test Compound
T1 sequence (P04062 40-536): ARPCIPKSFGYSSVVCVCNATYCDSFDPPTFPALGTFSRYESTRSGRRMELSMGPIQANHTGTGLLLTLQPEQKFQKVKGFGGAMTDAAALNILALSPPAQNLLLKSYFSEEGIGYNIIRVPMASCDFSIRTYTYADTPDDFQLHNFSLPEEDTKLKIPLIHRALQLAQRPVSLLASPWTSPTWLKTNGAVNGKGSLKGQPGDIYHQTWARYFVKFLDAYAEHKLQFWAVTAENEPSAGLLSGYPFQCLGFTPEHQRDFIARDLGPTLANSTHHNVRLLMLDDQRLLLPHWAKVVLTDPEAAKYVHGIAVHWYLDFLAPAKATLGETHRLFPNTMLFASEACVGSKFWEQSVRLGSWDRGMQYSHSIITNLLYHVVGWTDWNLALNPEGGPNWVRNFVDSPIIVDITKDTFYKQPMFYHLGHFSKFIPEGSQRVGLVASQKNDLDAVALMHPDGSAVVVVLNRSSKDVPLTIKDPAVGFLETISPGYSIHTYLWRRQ
In short: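 Compounds tested at 1.0 and 0.1 μM, then in 8-point 3-fold curves, were pre-incubated 30 min at room temperature with 10 nM GCase plus 100 nM saposin C in PS/triton micelles, pH 4.7. Reaction with substrate (2 mM in micelles before mixing) ran 15 min; stopped at pH 12.5, read at ex 365/em 440 nm.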

[2] = Compound solubility in water; type: physicochemical

activation at 0.1 µM [1] [%] | activation at 1 µM [1] [%] | solubility [2] [µg/mL] | SMILES
> 20 | > 60 | 8.9 (≈ 21.4 µM) | Cc1cc(-c2cccc3ncoc23)nc2c(C(=O)NC(C3CC3)C(F)(F)F)ncn12 (stereo not drawn) [III-160]
> 20 | > 60 | 1.8 (≈ 4.94 µM) | CCc1cc(-c2cccc(OC)c2)nc2c(C(=O)N[C@@H](C)C3CC3)ncn12 [III-161]
> 20 | > 60 | 0.2 (≈ 0.542 µM) | Cc1cc(-c2cccc(Cl)c2)nc2c(C(=O)NC(C)(C)C3CC3)ncn12 [III-162]
> 20 | > 60 | 0.4 (≈ 1.02 µM) | Cc1cc(-c2cccc(F)c2)nc2c(C(=O)NC(C3CC3)C(F)(F)F)ncn12 (stereo not drawn) [III-163]
> 20 | > 60 | 4.5 (≈ 13.4 µM) | C#CC(C)(C)NC(=O)c1ncn2c(C)cc(-c3cccc(F)c3)nc12 [III-164]
> 20 | > 60 | 4.7 (≈ 11.9 µM) | CCc1cc(-c2ccns2)nc2c(C(=O)NC(C3CC3)C(F)(F)F)ncn12 (stereo not drawn) [III-165]
< 10 | 30 to 60 | 10.8 (≈ 29.3 µM) | CCc1cc(Oc2ccc(F)cc2)nc2c(C(=O)N[C@@H](C)C3CC3)ncn12 [III-166]
> 20 | > 60 | 2.9 (≈ 7.66 µM) | COc1cccc(-c2cc(C)n3cnc(C(=O)NC(C)C(F)(F)F)c3n2)c1 (stereo not drawn) [III-167]
> 20 | > 60 | 1.4 (≈ 3.57 µM) | CCOc1cccc(-c2cc(C)n3cnc(C(=O)NC(C)C(F)(F)F)c3n2)c1 (stereo not drawn) [III-168]
> 20 | > 60 | 0.7 (≈ 1.73 µM) | Cc1cc(-c2cccc(OC3CC3)c2)nc2c(C(=O)NC(C)C(F)(F)F)ncn12 (stereo not drawn) [III-169]
> 20 | > 60 | 0.1 (≈ 0.237 µM) | COc1cc(F)cc(-c2cc(C)n3cnc(C(=O)NC(C4CC4)C(F)(F)F)c3n2)c1 (stereo not drawn) [III-170]
> 20 | > 60 | 0.6 (≈ 1.42 µM) | COc1cc(-c2cc(C)n3cnc(C(=O)NC(C4CC4)C(F)(F)F)c3n2)ccc1F (stereo not drawn) [III-171]
> 20 | > 60 | 4.2 (≈ 11.2 µM) | COc1cccc(-c2cc(C)n3cnc(C(=O)NC(C4CC4)C4CC4)c3n2)c1 [III-172]
> 20 | > 60 | 1.7 (≈ 4.31 µM) | COc1cc(F)cc(-c2cc(C)n3cnc(C(=O)NC(C4CC4)C4CC4)c3n2)c1 [III-173]
> 20 | > 60 | 0.3 (≈ 0.761 µM) | COc1cc(-c2cc(C)n3cnc(C(=O)NC(C4CC4)C4CC4)c3n2)ccc1F [III-174]
10 to 20 | > 60 | 0.2 (≈ 0.487 µM) | COc1cc(-c2cc(C)n3cnc(C(=O)NC(C4CC4)C4CC4)c3n2)ccc1Cl [III-175]
> 20 | > 60 | 5.5 (≈ 14.9 µM) | Cc1cc(OC2CCC2)nc2c(C(=O)NC(C3CC3)C(F)(F)F)ncn12 (stereo not drawn) [III-176]
10 to 20 | 30 to 60 | 25.4 (≈ 71.3 µM) | Cc1cc(OC(C)C)nc2c(C(=O)NC(C3CC3)C(F)(F)F)ncn12 (stereo not drawn) [III-177]
10 to 20 | > 60 | 17.4 (≈ 53 µM) | Cc1cc(OC(C)C)nc2c(C(=O)NC(C3CC3)C3CC3)ncn12 [III-178]

Second part, the compound before the results:

SMILES | activation at 0.1 µM [1] [%] | activation at 1 µM [1] [%] | solubility [2] [µg/mL]
CCc1cc(N2CCCC(F)(F)C2)nc2c(C(=O)NC(C3CC3)C(F)(F)F)ncn12 (stereo not drawn) [III-137] | 10 to 20 | > 60 | 12 (≈ 27.8 µM)
Cc1cc(N2CCCC(F)(F)C2)nc2c(C(=O)NC(C3CC3)C(F)(F)F)ncn12 (stereo not drawn) [III-138] | > 20 | > 60 | 17.2 (≈ 41.2 µM)
Cc1cc(N2CCC(F)(F)C2)nc2c(C(=O)NC(C3CC3)C(F)(F)F)ncn12 (stereo not drawn) [III-139] | > 20 | > 60 | 1.8 (≈ 4.46 µM)
Cc1cc(-c2nc(Cl)cs2)nc2c(C(=O)NC(C)(C)C3CC3)ncn12 [III-140] | < 10 | < 30 | 0.8 (≈ 2.13 µM)
Cc1cc(-c2ccns2)nc2c(C(=O)NC(C3CC3)C(F)(F)F)ncn12 (stereo not drawn) [III-141] | > 20 | > 60 | 18 (≈ 47.2 µM)
Cc1cc(-n2ccc(Cl)n2)nc2c(C(=O)NC(C)(C)C3CC3)ncn12 [III-142] | < 10 | < 30 | 14.9 (≈ 41.5 µM)
Cc1cc(-n2ccc(Cl)n2)nc2c(C(=O)NC(C3CC3)C(F)(F)F)ncn12 (stereo not drawn) [III-143] | 10 to 20 | > 60 | 4.2 (≈ 10.5 µM)
Cc1cc(N2CCC(C)(C)C2=O)nc2c(C(=O)NC(C3CC3)C(F)(F)F)ncn12 (stereo not drawn) [III-144] | < 10 | 30 to 60 | 20.5 (≈ 50.1 µM)
Cc1cc(-c2cccc3ocnc23)nc2c(C(=O)NC(C3CC3)C(F)(F)F)ncn12 (stereo not drawn) [III-145] | > 20 | > 60 | 1.6 (≈ 3.85 µM)
COc1cccc(-c2cc(C)n3cnc(C(=O)NC(C)(C)C4CC4)c3n2)n1 [III-146] | > 20 | > 60 | 0.9 (≈ 2.46 µM)
COc1cccc(-c2cc(C)n3cnc(C(=O)NC(C4CC4)C(F)(F)F)c3n2)n1 (stereo not drawn) [III-147] | > 20 | > 60 | 0.5 (≈ 1.23 µM)
C#CC(C)(C)NC(=O)c1ncn2c(C)cc(-c3cccc(OC)n3)nc12 [III-148] | < 10 | 30 to 60 | 4.9 (≈ 14 µM)
CCc1cc(-c2cccc(OC)n2)nc2c(C(=O)NC(C3CC3)C(F)(F)F)ncn12 (stereo not drawn) [III-149] | > 20 | > 60 | 0.7 (≈ 1.67 µM)
Cc1cc(-c2cccc(C#N)c2)nc2c(C(=O)N[C@@H](C)C3CC3)ncn12 [III-150] | 10 to 20 | > 60 | 10.1 (≈ 29.2 µM)
Cc1cc(-c2cccc(C#N)c2)nc2c(C(=O)NC(C)(C)C3CC3)ncn12 [III-151] | > 20 | > 60 | 4.3 (≈ 12 µM)
Cc1cc(-c2cccc(C#N)c2)nc2c(C(=O)NC(C3CC3)C(F)(F)F)ncn12 (stereo not drawn) [III-152] | > 20 | > 60 | 3.8 (≈ 9.51 µM)
Cc1cc(-c2ccccc2C#N)nc2c(C(=O)NC(C3CC3)C(F)(F)F)ncn12 (stereo not drawn) [III-153] | > 20 | > 60 | 0.5 (≈ 1.25 µM)
Cc1cc(-c2ccccc2C(N)=O)nc2c(C(=O)NC(C3CC3)C(F)(F)F)ncn12 (stereo not drawn) [III-154] | < 10 | < 30 | 28.1 (≈ 67.3 µM)
CCOc1cccc(-c2cc(C)n3cnc(C(=O)N[C@@H](C)C4CC4)c3n2)n1 [III-155] | < 10 | 30 to 60 | 1.7 (≈ 4.65 µM)
CCOc1cccc(-c2cc(C)n3cnc(C(=O)NC(C)(C)C4CC4)c3n2)n1 [III-156] | < 10 | 30 to 60 | 0.8 (≈ 2.11 µM)
C#CC(C)(C)NC(=O)c1ncn2c(C)cc(-c3cccc(OC)c3)nc12 [III-157] | > 20 | > 60 | 2.1 (≈ 6.03 µM)
Cc1cc(OC2CC(F)(F)C2)nc2c(C(=O)NC(C3CC3)C(F)(F)F)ncn12 (stereo not drawn) [III-158] | < 10 | 30 to 60 | 21.9 (≈ 54.2 µM)

From patent US9920061B2, “Imidazo[1,5-A]pyrimidinyl carboxamide compounds and their use in the treatment of medical disorders” (Lysosomal Therapeutics Inc., priority 2016, dated 2018)
